ChEMBL document CHEMBL4364250, “Improvement of Asparagine Ethylenediamines as Anti-malarial Plasmodium-Selective Proteasome Inhibitors” (J Med Chem, 2019)

Key:
[1] = Inhibition of Plasmodium falciparum 20S proteasome beta5 subunit using suc-LLVY-AMC as substrate in presence of beta2 inhibitor WLW-VS
[2] = target: T1, Proteasome Macropain subunit MB1 (Homo sapiens, UniProt P28074); experiment: Inhibition of human beta5 20S constitutive proteasome using suc-LLVY-AMC as substrate
T1 sequence (P28074 whole entry): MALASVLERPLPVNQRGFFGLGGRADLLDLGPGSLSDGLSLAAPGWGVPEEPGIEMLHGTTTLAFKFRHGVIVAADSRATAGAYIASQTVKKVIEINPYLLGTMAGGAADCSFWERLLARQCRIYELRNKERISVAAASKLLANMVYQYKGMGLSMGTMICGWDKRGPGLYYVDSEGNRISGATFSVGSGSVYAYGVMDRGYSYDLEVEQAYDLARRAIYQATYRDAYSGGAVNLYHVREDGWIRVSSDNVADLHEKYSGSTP

[3] = target: T2, Proteasome subunit beta type-8 (Homo sapiens, UniProt P28062); experiment: Inhibition of human beta5 20S immunoproteasome using Ac-ANW-AMC as substrate
T2 sequence (P28062 whole entry): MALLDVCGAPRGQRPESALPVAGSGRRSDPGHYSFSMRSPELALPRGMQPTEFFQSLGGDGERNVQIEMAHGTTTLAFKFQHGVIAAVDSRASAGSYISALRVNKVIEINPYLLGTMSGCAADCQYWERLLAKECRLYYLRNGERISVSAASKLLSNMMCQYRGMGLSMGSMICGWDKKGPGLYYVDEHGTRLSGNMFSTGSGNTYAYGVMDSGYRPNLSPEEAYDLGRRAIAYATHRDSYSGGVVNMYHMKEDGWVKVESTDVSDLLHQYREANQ

Plasmodium falciparum [4] = experiment: Antimalarial activity against erythrocytic stage of Plasmodium falciparum 3D7 measured after 72 hrs by SYBR green dye based fluorescence assay; type: functional, organism-based; details: 3D7, 72 h
[5] = system: beta5 subunit of human 20S constitutive proteasome; experiment: Selectivity ratio of IC50 for human beta5 20S constitutive proteasome to IC50 for Plasmodium falciparum 20S proteasome beta5 subunit; type: toxicity; details: read-out: Ratio IC50
[6] = system: beta5 subunit of human 20S immunoproteasome; experiment: Selectivity ratio of IC50 for human beta5 20S immunoproteasome to IC50 for Plasmodium falciparum 20S proteasome beta5 subunit; type: toxicity; details: read-out: Ratio IC50
HepG2 = experiment: Cytotoxicity against human HepG2 cells; type: cell-based
Karpas-1106P = experiment: Cytotoxicity against human KARPAS1106P cells; type: cell-based
Plasmodium falciparum [7] = experiment: Antimalarial activity against erythrocytic stage of Plasmodium falciparum Dd2 measured after 72 hrs by SYBR green dye based fluorescence assay; type: functional, organism-based; details: Dd2, 72 h
Plasmodium falciparum [8] = experiment: Antimalarial activity against erythrocytic stage of Plasmodium falciparum Dd2 harboring 20S beta2 proteasome A117D mutant measured after 72 hrs by SYBR green dye based fluorescence assay; type: functional, organism-based; details: Dd2, 72 h
Plasmodium falciparum [9] = experiment: Antimalarial activity against erythrocytic stage of Plasmodium falciparum Dd2 harboring 20S beta5 proteasome A49S mutant measured after 72 hrs by SYBR green dye based fluorescence assay; type: functional, organism-based; details: Dd2, 72 h
Plasmodium falciparum [10] = experiment: Resistance index, ratio of EC50 for erythrocytic stage of Plasmodium falciparum Dd2 harboring 20S beta5 proteasome A49S mutant to EC50 erythrocytic stage of Plasmodium falciparum Dd2; type: functional
Plasmodium falciparum [11] = experiment: Resistance index, ratio of EC50 for erythrocytic stage of Plasmodium falciparum Dd2 harboring 20S beta6 proteasome A117D mutant to EC50 erythrocytic stage of Plasmodium falciparum Dd2
[12] = Clearance in human liver microsomes; type: ADME, Microsome; details: read-out: CLH
[13] = Clearance in rat liver microsomes; type: ADME, Microsome; details: read-out: CLH
[14] = Clearance in mouse liver microsomes; type: ADME, Microsome; details: read-out: CLH

| SMILES | IC50 [1] [µM] | IC50 [2] [µM] | IC50 [3] [µM] | EC50 (Plasmodium falciparum [4]) [µM] | selectivity ratio [5] | selectivity ratio [6] | EC50 (HepG2) [µM] | EC50 (Karpas-1106P) [µM] | EC50 (Plasmodium falciparum [7]) [µM] | EC50 (Plasmodium falciparum [8]) [µM] | EC50 (Plasmodium falciparum [9]) [µM] | Ratio EC50 (Plasmodium falciparum [10]) | Ratio EC50 (Plasmodium falciparum [11]) | microsomal CLint [12] [µL/min/mg] | microsomal CLint [13] [µL/min/mg] | microsomal CLint [14] [µL/min/mg] |
| --- | --- | --- | --- | --- | --- | --- | --- | --- | --- | --- | --- | --- | --- | --- | --- | --- |
| Cc1ccc(S(=O)(=O)N[C@@H](CC(=O)NC(C)(C)C)C(=O)NCCNC(=O)c2ccc(Cl)cc2)cc1 | 0.113 | 5 | 0.038 | 0.13 | 44 | 0.3 | > 11 | > 11.1 | – | – | – | – | – | – | – | – |
| Cc1cc(C(=O)N[C@@H](CC(=O)NC(C)(C)C)C(=O)NCCNC(=O)c2cccc(-n3cccn3)c2)no1 | – | – | – | – | – | – | – | – | 0.0276 | 0.279 | > 2.77 | >100 | 10 | – | – | – |
| Cc1ccc(S(=O)(=O)N[C@@H](CC(=O)NC(C)(C)C)C(=O)NCCNC(=O)c2cccc(O)c2)cc1 | 0.0224 | 4.38 | 0.475 | 0.0154 | 195 | 21 | > 11 | > 11.1 | – | – | – | – | – | – | – | – |
| Cc1ccc(S(=O)(=O)N[C@@H](CC(=O)NC(C)(C)C)C(=O)NCCNS(=O)(=O)c2ccccc2)cc1 | 15.1 | > 100 | 2.89 | > 2.77 | > 6.6 | 0.2 | > 11 | > 11.1 | – | – | – | – | – | – | – | – |
| Cc1ccc(S(=O)(=O)N[C@@H](CC(=O)NC(C)(C)C)C(=O)NCCNC(=O)NCc2ccccc2)cc1 | 2.77 | 46.6 | 2.35 | 2.14 | 16.8 | 0.85 | > 11 | > 11.1 | – | – | – | – | – | – | – | – |
| Cc1ccc(S(=O)(=O)N[C@@H](CC(=O)NC(C)(C)C)C(=O)NCCNC(=O)c2ccc(F)c(F)c2)cc1 | 0.126 | 6.04 | 0.195 | 0.0688 | 48 | 1.5 | > 11 | > 11.1 | – | – | – | – | – | – | – | – |
| Cc1ccc(S(=O)(=O)N[C@@H](CC(=O)NC(C)(C)C)C(=O)NCCNC(=O)c2ccccc2Cl)cc1 | 0.211 | 26 | 1.4 | 0.098 | 123 | 6.6 | > 11 | > 11.1 | – | – | – | – | – | – | – | – |
| Cc1ccc(S(=O)(=O)N[C@@H](CC(=O)NC(C)(C)C)C(=O)NCCNC(=O)c2cccc(C(F)(F)F)c2)cc1 | 0.25 | 37.1 | 0.763 | 0.167 | 148 | 3.1 | > 11 | > 11.1 | – | – | – | – | – | – | – | – |
| CC(C)C[C@@H](/C=C/S(C)(=O)=O)NC(=O)[C@H](CC(C)C)NC(=O)[C@H](Cc1c[nH]c2ccccc12)NC(=O)CN1CCOCC1 | – | – | – | – | – | – | – | – | 0.0916 | 0.0073 | 0.026 | 0.28 | 0.08 | – | – | – |
| Cc1ccc(S(=O)(=O)N[C@@H](CC(=O)NC(C)(C)C)C(=O)NCCNC(=O)c2cccc(F)c2)cc1 | 0.0296 | 2.2 | 0.128 | 0.0117 | 74 | 4.3 | > 11 | > 11.1 | – | – | – | – | – | – | – | – |
| Cc1ccc(S(=O)(=O)N[C@@H](CC(=O)NC(C)(C)C)C(=O)NCCNC(=O)c2cccc(C#N)c2)cc1 | 0.39 | 40.2 | 4.69 | 0.132 | 103 | 12 | > 11 | > 11.1 | – | – | – | – | – | – | – | – |
| Cc1ccc(S(=O)(=O)N[C@@H](CC(=O)NC(C)(C)C)C(=O)NCCNC(=O)c2cc(Cl)ccn2)cc1 | 0.911 | > 100 | 3.56 | 0.283 | > 110 | 3.9 | > 11 | > 11.1 | – | – | – | – | – | – | – | – |
| Cc1ccc(S(=O)(=O)N[C@@H](CC(=O)NC(C)(C)C)C(=O)NCCNC(=O)c2cc(Cl)ccc2Cl)cc1 | 0.197 | > 100 | 5.65 | 0.118 | > 507 | 28.7 | > 11 | > 11.1 | – | – | – | – | – | – | – | – |
| Cc1ccc(S(=O)(=O)N[C@@H](CC(=O)NC(C)(C)C)C(=O)NCCNC(=O)c2ccccc2O)cc1 | 0.0061 | 0.409 | 0.024 | 0.0096 | 67 | 4 | > 11 | > 11.1 | – | – | – | – | – | – | – | – |
| Cc1ccc(S(=O)(=O)N[C@@H](CC(=O)NC(C)(C)C)C(=O)NCCNC(=O)c2c(O)cccc2F)cc1 | 0.0405 | 0.54 | 0.0727 | 0.0837 | 13 | 1.8 | > 11 | > 11.1 | – | – | – | – | – | – | – | – |
| Cc1ccc(S(=O)(=O)N[C@@H](CC(=O)NC(C)(C)C)C(=O)NCCNC(=O)Nc2ccccc2)cc1 | 2.58 | > 100 | 2.09 | > 2.77 | > 3.9 | 0.8 | > 11 | > 11.1 | – | – | – | – | – | – | – | – |
| CC(C)C[C@H](NC(=O)[C@H](Cc1ccccc1)NC(=O)c1cnccn1)B(O)O [BORTEZOMIB] | – | – | – | – | – | – | – | – | 0.419 | 0.106 | 1.02 | 2.4 | 0.25 | – | – | – |
| Cc1ccc(S(=O)(=O)N[C@@H](CC(=O)NC(C)(C)C)C(=O)NCCNC(=O)c2ccccn2)cc1 | 1.09 | 29.4 | 2.09 | > 2.77 | 27 | 1.9 | > 11 | > 11.1 | – | – | – | – | – | – | – | – |
| CC(C)(C)NC(=O)C[C@H](NC(=O)CCc1ccccc1)C(=O)NCCNC(=O)c1cccc(-c2ccccc2)c1 | – | – | – | – | – | – | – | – | 0.0025 | 0.326 | 1.35 | 541 | 130 | – | – | – |
| Cc1ccc(S(=O)(=O)N[C@@H](CC(=O)NC(C)(C)C)C(=O)NCCNC(=O)c2cccc(C(C)C)c2)cc1 | 0.0404 | 9.12 | 0.2 | 0.0985 | 225 | 5 | > 11 | > 11.1 | – | – | – | – | – | – | – | – |
| COc1cc(OC)cc(C(=O)NCCNC(=O)[C@H](CC(=O)NC(C)(C)C)NS(=O)(=O)c2ccc(C)cc2)c1 | 4.06 | > 100 | 9.97 | > 2.77 | > 24.7 | 2.5 | > 11 | > 11.1 | – | – | – | – | – | – | – | – |
| Cc1ccc(S(=O)(=O)N[C@@H](CC(=O)NC(C)(C)C)C(=O)NCCNC(=O)c2cc(C)ccn2)cc1 | 0.639 | > 100 | 3.11 | 0.227 | > 156 | 4.9 | > 11 | > 11.1 | – | – | – | – | – | – | – | – |
| Cc1ccc(S(=O)(=O)N[C@@H](CC(=O)NC(C)(C)C)C(=O)NCCNC(=O)c2ccc(F)cc2)cc1 | 0.121 | 6.7 | 0.179 | 0.0509 | 55 | 1.5 | > 11 | > 11.1 | – | – | – | – | – | 149 | 81 | 49 |
